Biological target: wild-type human cardiac sodium channel, hNav1.5 (late sodium current) in HEK293 cells (Homo sapiens, UniProt Q14524)
Experiment: Late INa screening assay (automated whole-cell patch clamp, PatchXpress)
Type: cell-based
Conditions: HEK293, compound at 1 μM; late INa generated with 10 μM Tefluthrin (or 50 nM ATX II); HEK293 hNav1.5; read-out: Late INa 1 μM (percent block of late INa)
Protocol: The late sodium current (Late INa) and peak sodium current (Peak INa) assays are performed on an automated electrophysiology platform, PatchXpress 7000A (MDS Analytical Technologies, Sunnyvale, Calif.), which uses the whole cell patch clamp technique to measure currents through the cell membrane of up to 16 cells at a time. The assay uses an HEK293 (human embryonic kidney) cell line heterologously expressing the wild-type human cardiac sodium channel, hNav1.5, purchased from Millipore (Billerica, Mass.). No beta subunits were coexpressed with the Na channel alpha subunit. Cells are maintained with standard tissue culture procedures and stable channel expression is maintained with 400 μg/ml Geneticin in the culture medium. Cells isolated for use on PatchXpress are incubated for 5 minutes in Versene 1× and then for 2 minutes in 0.0125% Trypsin-EDTA (both at 37° C.) to ensure that 80-90% of the cells are single and not part of a cell cluster. Experiments are carried out at 24-27° C.
For both the Late INa and Peak INa assays, series resistance compensation is set to 50% and whole-cell compensation is performed automatically. Currents are low-pass filtered at 10 kHz and digitized at 31.25 kHz. Currents through open sodium channels are automatically recorded and stored in the DataXpress2 database (MDS Analytical Technologies, Sunnyvale, Calif.). Analysis is performed using DataXpress2 analysis software and data are compiled in Excel.
Compound stocks are routinely made in glass vials to 10 mM in dimethyl sulfoxide (DMSO). In some cases, when compounds are not soluble in DMSO, they are made in 100% ethanol. Stocks are sonicated as necessary. The extracellular solution for screening Late INa is composed of: 140 mM NaCl, 4 mM KCl, 1.8 mM CaCl2, 0.75 mM MgCl2, and 5 mM HEPES with pH adjusted to 7.4 using NaOH. The extracellular solution for screening Peak INa is composed of: 20 mM NaCl, 120 mM N-methyl-D glucamine, 4 mM KCl, 1.8 mM CaCl2, 0.75 mM MgCl2, and 5 mM HEPES with pH adjusted to 7.4 using HCl. The intracellular solution used to perfuse the inside of the cells for both the Late INa and Peak INa assays contains: 120 mM CsF, 20 mM CsCl, 5 mM EGTA, 5 mM HEPES and pH adjusted to 7.4 with CsOH. Compounds are diluted in extracellular solution to 10 μM in glass vials and then transferred to glass well plates before robotic addition to the cells. The 0Na extracellular solution used at the end of each experiment for the Late INa and Peak INa assays to measure baseline current contains: 140 mM N-methyl-D-glucamine; 4 mM KCl; 1.8 mM CaCl2; 0.75 mM MgCl2; 5 mM HEPES and pH was adjusted to 7.4 with HCl.
For the Late INa assay, sodium channels are activated every 10 seconds (0.1 Hz) by depolarizing the cell membrane to −20 mV for 250 milliseconds (ms) from a holding potential of −120 mV. In response to a −20 mV voltage step, typical Nav1.5 sodium currents activate rapidly to a peak negative current and then inactivate nearly completely within 3-4 ms.
All compounds are tested to determine their activity in blocking the late sodium current. Late INa current is generated by adding 10 μM Tefluthrin (pyrethroid) to the extracellular solution while recording Na currents. For some experiments, 50 nM ATX II (sea anemone toxin), another late INa activator, was used to generate the late component. Both activators generate late components that are large enough that block of the late component by compounds can be measured easily. For the purposes of the screening, late INa is defined as the mean current between 225 ms and 250 ms after stepping to −20 mV to activate Na channels. After establishing the whole cell recording configuration, late INa activators are added to each well 4 times over a 16-17 minute period so that the late component of the Na current reaches a stable value. Compounds are then added (typically at 10 μM), in the presence of late INa activator, with 3 additions over the course of 7 or 8 minutes. […]

Chain of wild-type human cardiac sodium channel, hNav1.5 (late sodium current) in HEK293 cells (Q14524 whole entry): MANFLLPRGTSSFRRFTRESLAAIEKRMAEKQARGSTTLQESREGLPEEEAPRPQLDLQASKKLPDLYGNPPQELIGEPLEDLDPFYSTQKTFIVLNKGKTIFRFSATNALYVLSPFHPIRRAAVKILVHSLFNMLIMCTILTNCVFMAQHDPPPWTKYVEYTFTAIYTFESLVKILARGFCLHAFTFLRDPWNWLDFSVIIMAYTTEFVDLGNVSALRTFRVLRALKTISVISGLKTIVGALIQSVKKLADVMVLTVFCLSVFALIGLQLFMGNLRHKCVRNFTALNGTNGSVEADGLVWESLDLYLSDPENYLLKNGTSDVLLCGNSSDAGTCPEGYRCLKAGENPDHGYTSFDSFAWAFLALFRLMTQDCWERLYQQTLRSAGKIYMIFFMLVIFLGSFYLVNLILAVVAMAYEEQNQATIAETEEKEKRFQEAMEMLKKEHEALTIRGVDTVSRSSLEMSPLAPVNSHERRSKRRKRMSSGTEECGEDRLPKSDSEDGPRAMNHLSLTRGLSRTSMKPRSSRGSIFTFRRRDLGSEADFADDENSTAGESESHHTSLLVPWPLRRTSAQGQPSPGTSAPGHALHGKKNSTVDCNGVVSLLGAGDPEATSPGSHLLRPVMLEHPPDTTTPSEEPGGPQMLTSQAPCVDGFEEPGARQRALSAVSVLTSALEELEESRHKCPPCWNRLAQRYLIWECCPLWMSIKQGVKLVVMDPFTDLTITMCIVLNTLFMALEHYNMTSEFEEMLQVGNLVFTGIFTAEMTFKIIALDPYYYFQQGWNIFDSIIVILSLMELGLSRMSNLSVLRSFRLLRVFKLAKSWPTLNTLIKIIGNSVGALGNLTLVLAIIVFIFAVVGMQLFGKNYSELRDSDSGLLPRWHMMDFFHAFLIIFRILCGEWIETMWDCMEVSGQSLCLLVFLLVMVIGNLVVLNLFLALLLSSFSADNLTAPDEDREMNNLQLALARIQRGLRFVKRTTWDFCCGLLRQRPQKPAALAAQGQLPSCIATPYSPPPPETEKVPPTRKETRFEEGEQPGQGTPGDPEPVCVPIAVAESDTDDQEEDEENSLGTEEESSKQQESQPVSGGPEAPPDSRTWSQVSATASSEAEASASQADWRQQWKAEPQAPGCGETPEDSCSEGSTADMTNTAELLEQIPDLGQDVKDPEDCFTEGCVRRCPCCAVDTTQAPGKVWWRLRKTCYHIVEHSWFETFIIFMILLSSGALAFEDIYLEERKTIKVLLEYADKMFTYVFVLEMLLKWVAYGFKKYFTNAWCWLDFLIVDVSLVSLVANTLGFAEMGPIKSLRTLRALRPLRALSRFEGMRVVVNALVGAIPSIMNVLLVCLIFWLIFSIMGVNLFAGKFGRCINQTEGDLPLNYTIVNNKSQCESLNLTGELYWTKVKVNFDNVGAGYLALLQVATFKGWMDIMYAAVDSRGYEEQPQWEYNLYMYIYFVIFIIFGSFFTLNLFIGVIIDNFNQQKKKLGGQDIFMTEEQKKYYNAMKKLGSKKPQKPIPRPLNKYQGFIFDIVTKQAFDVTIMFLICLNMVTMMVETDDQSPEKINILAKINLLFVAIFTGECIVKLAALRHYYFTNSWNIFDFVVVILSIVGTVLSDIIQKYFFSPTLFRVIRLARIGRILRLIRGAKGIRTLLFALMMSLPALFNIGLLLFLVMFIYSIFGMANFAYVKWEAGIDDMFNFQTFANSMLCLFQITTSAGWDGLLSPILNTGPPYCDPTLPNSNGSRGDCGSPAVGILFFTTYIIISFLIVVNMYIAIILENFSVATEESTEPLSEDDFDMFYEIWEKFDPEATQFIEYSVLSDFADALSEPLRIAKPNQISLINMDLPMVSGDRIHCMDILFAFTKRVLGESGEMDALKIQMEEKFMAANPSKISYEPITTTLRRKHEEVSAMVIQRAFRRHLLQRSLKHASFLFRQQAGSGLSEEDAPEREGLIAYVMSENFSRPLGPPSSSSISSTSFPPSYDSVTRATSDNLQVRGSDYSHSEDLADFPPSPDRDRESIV

SMILES	inhibition at 1 µM [%]
Cc1cc(Cn2nc3ccc(-c4ccc(OC(F)(F)F)cc4)cn3c2=O)on1 [compound 164, 2-((3-methylisoxazol-5-yl)methyl)-6-(4-(trifluoromethoxy)phenyl)-[1,2,4]triazolo[4,3-a]pyridin-3(2H)-one]	16.9
Cc1cccc(CCn2nc3ccc(-c4ccc(OC(F)(F)F)cc4)cn3c2=O)n1 [compound 48, 2-(2-(6-methylpyridin-2-yl)ethyl)-6-(4-(trifluoromethoxy)phenyl)-[1,2,4]triazolo[4,3-a]pyridin-3(2H)-one]	34.9
COc1cc(F)ccc1OCC(O)Cn1nc2ccc(-c3ccc(OC(F)(F)F)cc3)cn2c1=O (stereo not drawn) [compound 98, 2-(3-(4-fluoro-2-methoxyphenoxy)-2-hydroxypropyl)-6-(4-(trifluoromethoxy)phenyl)-[1,2,4]triazolo[4,3-a]pyridin-3(2H)-one]	23.2
O=c1n(Cc2ncco2)nc2ccc(-c3ccc(OC(F)(F)F)cc3)cn12 [compound 19, 2-(oxazol-2-ylmethyl)-6-(4-(trifluoromethoxy)phenyl)-[1,2,4]triazolo[4,3-a]pyridin-3(2H)-one]	18.1
O=c1n(CCOc2nccc(-c3ccccc3)n2)nc2ccc(-c3ccc(OC(F)(F)F)cc3)cn12 [compound 115, 2-(2-(4-phenylpyrimidin-2-yloxy)ethyl)-6-(4-(trifluoromethoxy)phenyl)-[1,2,4]triazolo[4,3-a]pyridin-3(2H)-one]	22.9
O=c1n(CCCOc2ccccc2)nc2ccc(-c3ccc(OC(F)(F)F)cc3)cn12 [compound 24, 2-(3-phenoxypropyl)-6-(4-(trifluoromethoxy)phenyl)-[1,2,4]triazolo[4,3-a]pyridin-3(2H)-one]	25
O=c1n(CCOc2ncc(F)c(N3CC(F)(F)C3)n2)nc2ccc(-c3ccc(OC(F)(F)F)cc3)cn12 [compound 133, 2-(2-(4-(3,3-difluoroazetidin-1-yl)-5-fluoropyrimidin-2-yloxy)ethyl)-6-(4-(trifluoromethoxy)phenyl)-[1,2,4]triazolo[4,3-a]pyridin-3(2H)-one]	20.5
O=c1n(CCn2cc(Cl)cn2)nc2ccc(-c3ccc(OC(F)(F)F)cc3)cn12 [compound 41, 2-(2-(4-chloro-1H-pyrazol-1-yl)ethyl)-6-(4-(trifluoromethoxy)phenyl)-[1,2,4]triazolo[4,3-a]pyridin-3(2H)-one]	12.2
O=c1n(Cc2nnc(C3CC3)s2)nc2ccc(-c3ccc(OC(F)(F)F)cc3)cn12 [compound 170, 2-((5-cyclopropyl-1,3,4-thiadiazol-2-yl)methyl)-6-(4-(trifluoromethoxy)phenyl)-[1,2,4]triazolo[4,3-a]pyridin-3(2H)-one]	18
Cc1noc(Cn2nc3ccc(-c4ccc(OCC(F)(F)F)cc4)cn3c2=O)n1 [compound 83, 2-((3-methyl-1,2,4-oxadiazol-5-yl)methyl)-6-(4-(2,2,2-trifluoroethoxy)phenyl)-[1,2,4]triazolo[4,3-a]pyridin-3(2H)-one]	10.7
O=c1n(Cc2nnc(C3CC3)o2)nc2ccc(-c3ccc(Oc4ccc(F)cc4)cc3)cn12 [compound 182, 2-((5-cyclopropyl-1,3,4-oxadiazol-2-yl)methyl)-6-(4-(4-fluorophenoxy)phenyl)-[1,2,4]triazolo[4,3-a]pyridin-3(2H)-one]	45.9
O=c1n(Cc2noc(COc3ccccn3)n2)nc2ccc(-c3ccc(OC(F)(F)F)cc3)cn12 [compound 175, 2-((5-((pyridin-2-yloxy)methyl)-1,2,4-oxadiazol-3-yl)methyl)-6-(4-(trifluoromethoxy)phenyl)-[1,2,4]triazolo[4,3-a]pyridin-3(2H)-one]	28.9
CC1(C)OC[C@@H](c2nc(Cn3nc4ccc(-c5ccc(OC(F)(F)F)cc5)cn4c3=O)no2)O1 [compound 152, (S)-2-((5-(2,2-dimethyl-1,3-dioxolan-4-yl)-1,2,4-oxadiazol-3-yl)methyl)-6-(4-(trifluoromethoxy)phenyl)-[1,2,4]triazolo[4,3-a]pyridin-3(2H)-one]	10.7
Cc1coc(Cn2nc3ccc(-c4ccc(OC(F)(F)F)cc4)cn3c2=O)n1 [compound 191, 2-((4-methyloxazol-2-yl)methyl)-6-(4-(trifluoromethoxy)phenyl)-[1,2,4]triazolo[4,3-a]pyridin-3(2H)-one]	28.9
O=c1n(Cc2nc(-c3c(Cl)cccc3Cl)no2)nc2ccc(-c3ccc(OC(F)(F)F)cc3)cn12 [compound 9, 2-((3-(2,6-dichlorophenyl)-1,2,4-oxadiazol-5-yl)methyl)-6-(4-(trifluoromethoxy)phenyl)-[1,2,4]triazolo[4,3-a]pyridin-3(2H)-one]	29.8
Cc1noc(Cn2nc3ccc(-c4ccc(OC(F)(F)F)cc4)c(C)n3c2=O)n1 [compound 188, 5-methyl-2-((3-methyl-1,2,4-oxadiazol-5-yl)methyl)-6-(4-(trifluoromethoxy)phenyl)-[1,2,4]triazolo[4,3-a]pyridin-3(2H)-one]	17.3
COCc1noc(Cn2nc3ccc(-c4ccc(OC(F)(F)F)cc4)cn3c2=O)n1 [compound 153, 2-((3-(methoxymethyl)-1,2,4-oxadiazol-5-yl)methyl)-6-(4-(trifluoromethoxy)phenyl)-[1,2,4]triazolo[4,3-a]pyridin-3(2H)-one]	23.2
Cn1nc2ccc(-c3ccc(OC(F)(F)F)cc3)cn2c1=O [compound 201, 2-methyl-6-(4-(trifluoromethoxy)phenyl)-[1,2,4]triazolo[4,3-a]pyridin-3(2H)-one]	38.7
O=c1n(CCOc2ccccc2Cl)nc2ccc(-c3ccc(OC(F)(F)F)cc3)cn12 [compound 46, 2-(2-(2-chlorophenoxy)ethyl)-6-(4-(trifluoromethoxy)phenyl)-[1,2,4]triazolo[4,3-a]pyridin-3(2H)-one]	43.2
Cc1nc(Cn2nc3ccc(-c4ccc(C(F)(F)F)cc4)cn3c2=O)no1 [compound 148, 2-((5-methyl-1,2,4-oxadiazol-3-yl)methyl)-6-(4-(trifluoromethyl)phenyl)-[1,2,4]triazolo[4,3-a]pyridin-3(2H)-one]	11.6
O=c1n(CCCOc2ccccc2C(F)(F)F)nc2ccc(-c3ccc(OC(F)(F)F)cc3)cn12 [compound 66, 6-(4-(trifluoromethoxy)phenyl)-2-(3-(2-(trifluoromethyl)phenoxy)propyl)-[1,2,4]triazolo[4,3-a]pyridin-3(2H)-one]	14.7
COc1ccc(Br)c(CCn2nc3ccc(-c4ccc(OC(F)(F)F)cc4)cn3c2=O)n1 [compound 118, 2-(2-(3-bromo-6-methoxypyridin-2-yl)ethyl)-6-(4-(trifluoromethoxy)phenyl)-[1,2,4]triazolo[4,3-a]pyridin-3(2H)-one]	47.9
O=c1n(CCN2CCC(F)(F)CC2)nc2ccc(-c3ccc(OC(F)(F)F)cc3)cn12 [compound 50, 2-(2-(4,4-difluoropiperidin-1-yl)ethyl)-6-(4-(trifluoromethoxy)phenyl)-[1,2,4]triazolo[4,3-a]pyridin-3(2H)-one]	14.2
Cc1nc2ccc(OCC(O)Cn3nc4ccc(-c5ccc(OC(F)(F)F)cc5)cn4c3=O)cc2s1 (stereo not drawn) [compound 107, 2-(2-hydroxy-3-(2-methylbenzo[d]thiazol-6-yloxy)propyl)-6-(4-(trifluoromethoxy)phenyl)-[1,2,4]triazolo[4,3-a]pyridin-3(2H)-one]	22.4

From patent US9079901B2, “Fused heterocyclic compounds as ion channel modulators” (Gilead Sciences, Inc., priority 2010, dated 2015)
